Assay results published in US9345742B2, “Aminostatin derivatives for the treatment of arthrosis” (MERCK PATENT GMBH, priority 2011, dated 2016).

Tested on: bovine explants
Assay: Cartilage explant assay (pH-induced cartilage degradation, GAG liberation)
Format: cell-based
Conditions: Bos taurus, 72 h, pH 5.5, 3 days
Text: In order to investigate the effect of potential cathepsin D inhibitors on cartilage degradation, a pH-induced model based on bovine explants is used. The pH of the medium in which the explants are cultivated is matched here to the pathophysiological pH of an arthrotic knee. This pH is pH 5.5. In this ex vivo model, potential cathepsin D inhibitors are subsequently investigated for their action with respect to stopping of the cartilage degradation process. If the cartilage is destroyed, glycosaminoglycans (GAGs) are released into the cell culture supernatant. The amount of GAGs liberated can be determined quantitatively with the aid of DMMB (dimethylmethylene blue hydrochloride). If sulfated GAGs are detected using dimethylmethylene blue hydrochloride, the decrease in the absorption at 633 nm is utilised. […] In order to determine the concentration, a calibration line is also recorded using chondroitin sulfate.
The bovine explants are firstly prepared. The induction of the cartilage degradation is carried out in 96-multiwell plates. One explant is cultivated per well. In each case, 200 μl of DMEM (incubation medium pH 5.5) without FBS+30 μg/ml of ascorbic acid are added. Thus negative control, explants (n=4) are incubated at pH 7.4 (without FBS). This control is not included in the calculation of the data, but instead ensures that the pH change has the desired effect on the liberation of GAG. At this point, the substances to be tested are added. No preincubation of the explants is carried out. The explants are cultivated with the corresponding substances for 3 days in the incubator at 37° C. and 7.5% CO2.
In order to investigate the effect of cathepsin D inhibitors on the liberation of GAG (glycosaminoglycan), the substances are employed in the desired concentration and cultivated for 3 days. The compounds to be tested are tested in a first experiment in a concentration of 1 μM and 1% of DMSO. Substances which have an effect of >50% on the liberation of GAG (this corresponds to <50% of the control in the Assay Explorer) are tested in the next experiment at 100 nM and 1% of DMSO. Substances which have an effect of >50% on the liberation of GAG under these conditions (this corresponds to <50% of the control in the Assay Explorer) are tested in a concentration/effect relationship. The compounds here are investigated in the following concentrations: 30 μM, 10 μM, 3 μM, 1 μM, […], 0.1 μM, 0.03 μM, 0.01 μM.
The positive control used is pepstatin A with a concentration of 0.01 μM. The assay window is defined by the control (pH 5.5), defined as 0% effect, and the control pH 5.5+0.01 μM pepstatin A, defined as 100% effect. After incubation for 3 days, the cell culture supernatants are collected and stored at −20° C. or measured directly. The amount of liberated GAG is measured photometrically.
The effect (1 value) of the respective substance in % based on the positive control (pH 5.5+0.01 μM pepstatin A) and the negative control (pH 5.5) is reported for concentrations of 1 μM and 100 nM. The value represents the average of 4 replicants. In the determination of a concentration/effect relationship, an IC50 value is reported to the database (Assay Explorer).
The cell culture supernatants (200 μl) are either measured directly or stored at −20° C. In order to ensure an accurate determination of the concentration (μg/ml of GAG in the supernatant) of GAG, the measurement values must be located in the linear region of the standard curve. In order to ensure this, various dilutions are routinely introduced (1/5, 1/10, 1/20, 1/40). The dilutions are prepared with medium and introduced automatically (Hamilton) into a 384-well plate (15 μl). 60 μl of DMMB solution are likewise added automatically (or using a multichannel pipette). A rapid colour reaction occurs, which is subsequently measured at 633 nm using a plate reader (for example Envision).

CCC(CC)NC(=O)[C@@H](NC(=O)C[C@H](N)[C@H](Cc1ccccc1)NC(=O)[C@@H](NC(=O)[C@H](CC(C)C)NC(=O)CC(C)C)C(C)C)[C@@H](C)CC [Compound 39, N-[(1S,2S)-1-(1-Ethylpropylcarbamoyl)-2-methylbutyl]-(S)-3-(S)-amino-4-{(S)-3-methyl-2-[(S)-4-methyl-2-(3-methylbutyryl-amino)pentanoylamino]butyrylamino}-5-phenylpentanamide]
IC50: 0.233 nM
